Laboratory results: PubChem BioAssay AID330 (DTP/NCI, 2004)
Several values for one entry are separate records, joined by “and”; a condition that tells them apart may be missing. Identical values can stand only once. Toxic doses and inconclusive results are not listed. Rule for the calls: active = survival T/C of 150% or more; inactive = T/C below 125% in these data.

Tested on: P388 leukemia ip, CD2F1 mice, survival T/C
Assay: NCI In Vivo Anticancer Drug Screen. Data for tumor model P388 Leukemia (intraperitoneal) in CD2F1 (CDF1) mice
Details: endpoint: median survival time, higher = longer survival
How it was run: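 Mice carrying the transplanted tumor received test compound or vehicle. Survival was recorded in each group, and the value is the treated-group measurement divided by that of the vehicle-treated control group.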

[1] = dose: 100.0 mg/kg/injection, schedule: Q01DX001 (ip), vehicle: saline
[2] = dose: 200.0 mg/kg/injection, schedule: Q01DX001 (ip), vehicle: saline
[3] = dose: 400.0 mg/kg/injection, schedule: Q01DX001 (ip), vehicle: saline
[4] = dose: 60.0 mg/kg/injection, schedule: Q01DX005 (ip), vehicle: saline with Tween-80
[5] = dose: 120.0 mg/kg/injection, schedule: Q01DX005 (ip), vehicle: saline with Tween-80
[6] = dose: 240.0 mg/kg/injection, schedule: Q01DX005 (ip), vehicle: saline with Tween-80
[7] = dose: 60.0 mg/kg/injection, schedule: Q01DX005 (ip), vehicle: Klucel (hydroxypropylcellulose) (HPC)
[8] = dose: 120.0 mg/kg/injection, schedule: Q01DX005 (ip), vehicle: Klucel (hydroxypropylcellulose) (HPC)
[9] = dose: 240.0 mg/kg/injection, schedule: Q01DX005 (ip), vehicle: Klucel (hydroxypropylcellulose) (HPC)
[10] = dose: 25.0 mg/kg/injection, schedule: Q01DX009 (ip), vehicle: other
[11] = dose: 100.0 mg/kg/injection, schedule: Q01DX009 (ip), vehicle: other
[12] = dose: 200.0 mg/kg/injection, schedule: Q01DX009 (ip), vehicle: other

Measured: T/C

CNC(=S)N/N=C(\C)c1ccco1
inactive: [1] 104 % of control | [2] 97 % of control | [3] 97 % of control

CN(C)CCC(=O)C(=Cc1ccc(Cl)c(Cl)c1)C(=O)CCN(C)C
inactive: dose: 50.0 mg/kg/injection, schedule: Q01DX005 (ip), vehicle: saline 104 % of control | dose: 100.0 mg/kg/injection, schedule: Q01DX005 (ip), vehicle: saline 109 % of control

CCOC(=O)c1noc(Oc2ccc(Cl)cc2Cl)n1
inactive: [4] 93 % of control | [5] 97 % of control | [6] 90 % of control

O=C1CCCc2c1[nH]c1ccccc21
inactive: dose: 25.0 mg/kg/injection, schedule: Q01DX009 (ip), vehicle: saline with Tween-80 100 % of control | dose: 50.0 mg/kg/injection, schedule: Q01DX009 (ip), vehicle: saline with Tween-80 105 % of control | dose: 100.0 mg/kg/injection, schedule: Q01DX009 (ip), vehicle: saline with Tween-80 108 % of control | dose: 200.0 mg/kg/injection, schedule: Q01DX009 (ip), vehicle: saline with Tween-80 104 % of control

O=C(Nc1ccc(Cl)cc1)Nc1nnc(-c2cccc(-c3nnc(NC(=O)Nc4ccc(Cl)cc4)o3)c2)o1
inactive: [7] 94 % of control | [8] 96 % of control | [9] 97 % of control

Nc1nc2c(-c3ccc([N+](=O)[O-])cc3)nnn2c2cccc(Cl)c12
inactive: [4] 98 % of control | [5] 99 % of control | [6] 97 % of control

Cc1onc(-c2ccccc2)c1C
inactive: [1] 99 % of control | [2] 102 % of control | [3] 105 % of control

COc1cccc(C(=O)c2ccncc2)c1OC
inactive: dose: 12.5 mg/kg/injection, schedule: Q01DX009 (ip), vehicle: water 100 % of control | dose: 25.0 mg/kg/injection, schedule: Q01DX009 (ip), vehicle: water 100 % of control | dose: 50.0 mg/kg/injection, schedule: Q01DX009 (ip), vehicle: water 103 % of control | dose: 100.0 mg/kg/injection, schedule: Q01DX009 (ip), vehicle: water 104 % of control | dose: 200.0 mg/kg/injection, schedule: Q01DX009 (ip), vehicle: water 100 % of control

CCC1(C)CCC(C)(CC)c2c(C)cc(C(C)=O)cc21 (stereo not given)
inactive: dose: 100.0 mg/kg/injection, schedule: Q04DX003 (ip), vehicle: saline with Tween-80 114 % of control | dose: 200.0 mg/kg/injection, schedule: Q04DX003 (ip), vehicle: saline with Tween-80 97 % of control | dose: 400.0 mg/kg/injection, schedule: Q04DX003 (ip), vehicle: saline with Tween-80 92 % of control

CC1(C)C(C(N)=O)C(=O)NC(=O)C1C(N)=O (stereo not given)
inactive: [10] 100 % of control | dose: 50.0 mg/kg/injection, schedule: Q01DX009 (ip), vehicle: other 100 % of control | [11] 99 % of control | [12] 100 % of control | dose: 400.0 mg/kg/injection, schedule: Q01DX009 (ip), vehicle: other 105 % of control

O=C(NNc1nc(CCl)cs1)c1ccccc1Cl
inactive: dose: 12.5 mg/kg/injection, schedule: Q01DX009 (ip), vehicle: Klucel (hydroxypropylcellulose) (HPC) 106 % of control | dose: 25.0 mg/kg/injection, schedule: Q01DX009 (ip), vehicle: Klucel (hydroxypropylcellulose) (HPC) 103 % of control and 111 % of control | dose: 50.0 mg/kg/injection, schedule: Q01DX009 (ip), vehicle: Klucel (hydroxypropylcellulose) (HPC) 103 % of control and 113 % of control | dose: 100.0 mg/kg/injection, schedule: Q01DX009 (ip), vehicle: Klucel (hydroxypropylcellulose) (HPC) 103 % of control and 107 % of control | dose: 200.0 mg/kg/injection, schedule: Q01DX009 (ip), vehicle: Klucel (hydroxypropylcellulose) (HPC) 94 % of control

[N-]=[N+]=CC(=O)OCC1NC(=O)C(COC(=O)C=[N+]=[N-])NC1=O (stereo not given)
inactive: dose: 12.5 mg/kg/injection, schedule: Q01DX009 (ip), vehicle: other 104 % of control and 102 % of control | [10] 113 % of control and 101 % of control | [11] 111 % of control and 120 % of control | [12] 95 % of control and 111 % of control | dose: 3.1 micrograms/kg/injection, schedule: Q01DX009 (ip), vehicle: water 109 % of control and 104 % of control | dose: 6.1 micrograms/kg/injection, schedule: Q01DX009 (ip), vehicle: water 98 % of control and 101 % of control | dose: 12.2 micrograms/kg/injection, schedule: Q01DX009 (ip), vehicle: water 114 % of control and 100 % of control | dose: 24.4 micrograms/kg/injection, schedule: Q01DX009 (ip), vehicle: water 104 % of control and 107 % of control | dose: 48.8 micrograms/kg/injection, schedule: Q01DX009 (ip), vehicle: water 100 % of control | dose: 97.5 micrograms/kg/injection, schedule: Q01DX009 (ip), vehicle: water 92 % of control and 97 % of control | dose: 195.0 micrograms/kg/injection, schedule: Q01DX009 (ip), vehicle: water 100 % of control and 96 % of control | dose: 390.0 micrograms/kg/injection, schedule: Q01DX009 (ip), vehicle: water 109 % of control and 105 % of control | dose: 780.0 micrograms/kg/injection, schedule: Q01DX009 (ip), vehicle: water 100 % of control

CCOC(=O)c1ccc(NN=NCCO)cc1
inactive: dose: 12.5 mg/kg/injection, schedule: Q01DX009 (ip), vehicle: distilled water + Tween-80 97 % of control | dose: 25.0 mg/kg/injection, schedule: Q01DX009 (ip), vehicle: distilled water + Tween-80 100 % of control | dose: 50.0 mg/kg/injection, schedule: Q01DX009 (ip), vehicle: distilled water + Tween-80 100 % of control | dose: 100.0 mg/kg/injection, schedule: Q01DX009 (ip), vehicle: distilled water + Tween-80 95 % of control | dose: 200.0 mg/kg/injection, schedule: Q01DX009 (ip), vehicle: distilled water + Tween-80 118 % of control

COC(=O)/C(C#N)=C/c1ccco1
inactive: dose: 50.0 mg/kg/injection, schedule: Q01DX005 (ip), vehicle: Klucel (hydroxypropylcellulose) (HPC) 98 % of control | dose: 100.0 mg/kg/injection, schedule: Q01DX005 (ip), vehicle: Klucel (hydroxypropylcellulose) (HPC) 98 % of control

CC(C)NC(=O)OCc1c(COC(=O)NC(C)C)c2cccn2c2c1cnn2-c1ccccc1
inactive: dose: 30.0 mg/kg/injection, schedule: Q01DX005 (ip), vehicle: saline with Tween-80 87 % of control | [4] 89 % of control | [5] 89 % of control and 91 % of control | [6] 96 % of control

CCOC(=O)C(C(=O)c1ccccc1)C(C)(C)C (stereo not given)
inactive: dose: 37.5 mg/kg/injection, schedule: Q01DX009 (ip), vehicle: saline with Tween-80 103 % of control | dose: 75.0 mg/kg/injection, schedule: Q01DX009 (ip), vehicle: saline with Tween-80 105 % of control | dose: 150.0 mg/kg/injection, schedule: Q01DX009 (ip), vehicle: saline with Tween-80 112 % of control

O=C(Nc1cc(Cl)ccc1Cl)Oc1ccc(Cl)cc1C(=O)c1ccccc1
inactive: dose: 50.0 mg/kg/injection, schedule: Q01DX009 (ip), vehicle: saline 102 % of control | dose: 100.0 mg/kg/injection, schedule: Q01DX009 (ip), vehicle: saline 97 % of control | dose: 200.0 mg/kg/injection, schedule: Q01DX009 (ip), vehicle: saline 89 % of control

CC(C)(C=C(c1ccccc1)c1ccccc1)C=C(c1ccccc1)c1ccccc1
inactive: dose: 50.0 mg/kg/injection, schedule: Q01DX005 (ip), vehicle: saline with Tween-80 95 % of control | dose: 100.0 mg/kg/injection, schedule: Q01DX005 (ip), vehicle: saline with Tween-80 98 % of control | dose: 200.0 mg/kg/injection, schedule: Q01DX005 (ip), vehicle: saline with Tween-80 95 % of control

c1ccc2c(SCCCCCCCCSc3c4ccccc4nc4ccccc34)c3ccccc3nc2c1
inactive: [7] 101 % of control | [8] 86 % of control | [9] 86 % of control
